Patent US20090239757A1, “Control Sequences Responding to AMP and Uses Thereof” (priority 2004, published 2009)
Residues, ends and D or L forms follow the SMILES beside them.

Tested on: E. coli TOP10
Assay: microarray transcription profile of E. coli TOP10 expressing Novispirin G10 (pDRS5-novispirin, arabinose induced) relative to control strain pBAD gIII A
Assay type: cell-based, Escherichia coli
Procedure: In order to obtain a transcriptional profile of E. coli expressing Novispirin G10, 2×10 mL sterile LB media (10 g/L Bactotryptone, 5 g/L Yeast extract, and 10 g/L NaCl) containing 100 mg/L ampicillin was inoculated with E. coli TOP10 harbouring pDRS5-novispirin and pBAD gIII A, respectively. These cultures were grown overnight at 37° C. at 180 rpm. The overnight cultures were diluted 1/100 into fresh sterile RM media (2% Casamino Acids, 0.2% glycerol, 1 mM MgCl2, 0.1 mM thiamine, 6 g/L Na2HPO4, 3 g/L KH2PO4.2H2O, 0.5 g/L NaCl, 0.1 g/L NH4Cl at pH 7.4) supplemented with 100 mg/L ampicillin and 0.1% arabinose. 100 mL of each culture was grown at 37° C., 240 rpm for 4.5 hours before being harvested by poured into centrifugation tubes containing 10 mL pre-frozen milliQ water and immediate centrifugation at 4200 g for 15 minutes at 4° C. Immediately hereafter, the supernatant was decanted and the cell […] was frozen at −20° C. for storage until RNA preparation was initiated.
Total RNA was isolated from the two E. coli (expressing either Novispirin G10 or a control peptide) cultures by use of the High Pure RNA Isolation kit (Roche, cat #1 828 665) according to the manufacturers instructions. Residual DNA was removed on-column with RNase-free DNase. Labelled samples were prepared from 30 μg of total bacterial RNA. Fluorescent first strand cDNA was prepared by random primed reverse transcription (Superscript II; Life Technologies) by use of random hexamers for cDNA synthesis. 2 μl (20 μg) of random primer was mixed with 15 μl (30 μg) of total RNA, incubated for 5 min at 70° C., and cooled on ice. To each sample was added 5× first strand buffer (6 μl), 0.1 M DTT (3 μl), dNTP mix (5 mM dATP, dGTP and dTTP and 2 mM dCTP) (1 μl), RNaseOut (1 μl), Superscript II reverse transcriptase (2 μl) and Cy-dCTP (3 μl). Reverse transcription was carried out at 42° C. for 1 hr. RNA was removed by addition of 10 μl NaOH (1 M) and incubation at 65° C. for 10 min. The samples were neutralised by addition of 10 μl HCl (1 M). Cy3 and Cy5 cDNA samples were mixed and immediately purified with a GFX PCR DNA and Gel Band Purification Kit (Amersham Biosciences).
Slides were pre-hybridised at 42° C. for 45 min in a solution containing 4×SSC+0.5% SDS+1% BSA and dried by centrifugation. Hybridizations were in a volume of 25 μl under a supported cover slip at 42° C. for 16-18 h at high humidity. The hybridisation mixture was labelled cDNA in a formamide-based hybridisation buffer (MWG—supplied with the pan-arrays). Cover slip and supports were gently removed (2×SSC in a wash tray) and arrays were washed by immersion into 2×SSC+0.1% SDS for 5 min, 1×SSC+0.1% SDS for 5 min, 0.5×SSC for 5 min and 1× millipore water for 10 sec and dried by centrifugation. Slides were scanned on a GMS 418 scanner to detect Cy3 and Cy5 fluorescence. Data analysis was carried out using ImaGene 5.0 and GeneSight 3.5 from BioDiscovery (www.biodiscovery.com). Two biological replicate experiments with four replicate hybridisations in each experiment were carried out for generation of data.
Pan E. coli K12 Arrays from MWG Biotech were used in this study (lot No.: 020206). The 4239 E. coli K12 specific oligonucleotide probes present on this glass-based DNA chip represent the complete Escherichia coli (K12) genome
Gene expression data was analyzed using the GeneSight 4.1.5 software from BioDiscovery. Data was prepared using local background correction, removal of flagged spots (contaminated background or signal), floor value raising data to a minimum value of 20, calculation of ratio, log(2) transformation of ratios, print-tip lowess normalization, and finally combination of replicate spot.

[1] = confidence level of 90%, relative to control strain expressing a peptide without antimicrobial activity

CC[C@H](C)[C@H](NC(=O)CNC(=O)[C@H](CCCCN)NC(=O)[C@H](CCCNC(=N)N)NC(=O)[C@@H](NC(=O)[C@@H](NC(=O)[C@H](CCCNC(=N)N)NC(=O)[C@H](CCCNC(=N)N)NC(=O)[C@H](CC(C)C)NC(=O)[C@H](CC(N)=O)NC(=O)[C@@H](N)CCCCN)[C@@H](C)CC)[C@@H](C)CC)C(=O)N[C@@H](Cc1c[nH]cn1)C(=O)N[C@H](C(=O)N[C@H](C(=O)N[C@@H](CCCCN)C(=O)N[C@@H](CCCCN)C(=O)N[C@@H](Cc1ccc(O)cc1)C(=O)NCC(=O)O)[C@@H](C)CC)[C@@H](C)CC [Novispirin G10] (H-KNLRRIIRKGIHIIKKYG-OH; N-terminus assumed)
ratio, gene tra8_1: −4.3
ratio, gene trpD: −3.4
ratio, gene tsx: −3.3
ratio, gene ugpA: 3.3
ratio, gene uvrY: 3.3
ratio, gene uxuB: 3.5
ratio, gene vacJ: 3.0
ratio, gene wcaD: −2.7
ratio, gene wcaJ: −2.8
ratio, gene wza: 3.3
ratio, gene xasA: 24.9
ratio, gene yaaI: 2.9
ratio, gene yabI: −2.6
ratio, gene yafC: −5.1
ratio, gene yagT: 3.3
ratio, gene yaiH: 6.1
ratio, gene yaiP: −3.9
ratio, gene ybaP: 8.4
ratio, gene ybaS: 8.8
ratio, gene ybaY: 9.9
ratio, gene ybbN: −2.6
ratio, gene ybbY: 4.4
ratio, gene ybdS: 4.2
ratio, gene ybeK: −3.0
ratio, gene ybeL: 3.6
ratio, gene ybfA: 3.5
ratio, gene ybgA: 4.2
ratio, gene ybhL: 9.3
ratio, gene ybhP: −5.1
ratio, gene ybhS: −2.6
ratio, gene ybiU: −3.7
ratio, gene ybiX: −2.7
ratio, gene ybjC: −2.7
ratio, gene ybjG: 5.8
ratio, gene ybjN: −2.7
ratio, gene ybjX: 5.3
ratio, gene ycaC: 7.4
ratio, gene ycbQ: −5.0
ratio, gene yccD: 4.9
ratio, gene yccM: 2.8
ratio, gene ycdQ: −2.8
ratio, gene ycfA: −3.4
ratio, gene ycfH: 5.3
ratio, gene ycfR: 2.8
ratio, gene ycgB: 4.5
ratio, gene ycgY: 3.0
ratio, gene yciE: 5.4
ratio, gene yciI: 5.1
ratio, gene yciR: 6.5
ratio, gene ycjF: −2.7
ratio, gene yddM: 3.0
ratio, gene ydhO: −2.8
ratio, gene yeaG: 12.0
ratio, gene yeaH: 2.8
ratio, gene yeaP: −2.6
ratio, gene yeaQ: 6.9
ratio, gene yedU: 3.7
ratio, gene yehT: −4.0
ratio, gene yehX: 5.6
ratio, gene yehY: 4.2
ratio, gene yehZ: 7.1
ratio, gene yeiQ: −2.7
ratio, gene yfbM: 4.9
ratio, gene yfcI: 3.1
ratio, gene yfiA: −3.6
ratio, gene yfiD: −2.6
ratio, gene ygaG: 3.8
ratio, gene ygaH: −3.3
ratio, gene ygaM: 7.9
ratio, gene ygaU: 5.1
ratio, gene ygcO: −5.7
ratio, gene ygeF: 5.2
ratio, gene ygfQ: 3.7
ratio, gene yggH: 5.7
ratio, gene ygiA: 4.2
ratio, gene ygiW: 5.2
ratio, gene yhaF: −2.6
ratio, gene yhcO: 4.4
ratio, gene yhfG: 3.4
ratio, gene yhgE: −2.9
ratio, gene yhhZ: −2.6
ratio, gene yhiE: 3.9
ratio, gene yhiF: 2.9
ratio, gene yhiW: 3.0
ratio, gene yhjX: −9.6
ratio, gene yi81_1: −3.2
ratio, gene yiaG: 10.1
ratio, gene yiaL: −2.9
ratio, gene yibI: −3.1
ratio, gene yidZ: −3.3
ratio, gene yieJ: −2.9
ratio, gene yieN: −3.8
ratio, gene yigW_1: 3.8
ratio, gene yihL: −8.0
ratio, gene yihM: −3.3
ratio, gene yihQ: 3.9
ratio, gene yijC: 4.1
ratio, gene yjbF: −3.5
ratio, gene yjbO: 8.3
ratio, gene yjcF: 3.1
ratio, gene yjdB: 4.5
ratio, gene yjiG: 3.1
ratio, gene yjiZ: 3.8
ratio, gene ykgE: −4.2
ratio, gene ykgF: −3.1
ratio, gene ylbB: −3.1
ratio, gene ylcC: −3.6
ratio, gene ylcD: 8.8
ratio, gene ymdD: −4.3
ratio, gene ymfJ: −3.4
ratio, gene ymfM: 5.1
ratio, gene ymgE: 3.9
ratio, gene yncB: 3.4
ratio, gene ynfL: 5.7
ratio, gene yoaE: 2.8
ratio, gene yodB: 6.2
ratio, gene yohC: 12.0
ratio, gene yohF: 2.8
ratio, gene yohM: 7.7
ratio, gene yqcD: −3.3
ratio, gene yqgA: −2.9
ratio, gene yqhD: −2.6
ratio, gene yqhE: 4.0
ratio, gene yqjC: 3.2
ratio, gene yqjD: 5.8
ratio, gene yqjE: 3.9
ratio, gene yqjF: 3.6
ratio, gene yqjG: 2.9
ratio, gene yrbF: 3.1
ratio, gene yrfG: −2.6
ratio, gene ysgA: 2.8
Fold, gene ais (AMP resistance): 14.1
Fold, gene b2253 (AMP resistance): 8.4
Fold, gene b2254 (AMP resistance): 5.5
Fold, gene b2256 (AMP resistance): 4.0
Fold, gene crcA (AMP resistance): 11.7
Fold, gene Asr (Acid shock): 19.2
Fold, gene Slp (Acid shock): 3.6
Fold, gene dksA (Acid shock): 4.1
Fold, gene dps (Acid shock): 4.4
Fold, gene gabP (Acid shock): 8.2
Fold, gene gabT (Acid shock): 6.5
Fold, gene gadC (Acid shock): 24.9
Fold, gene gadE (Acid shock): 3.9
Fold, gene gadW (Acid shock): 3.0
Fold, gene hdeA (Acid shock): 7.7
Fold, gene hdeB (Acid shock): 7.9
Fold, gene hdeD (Acid shock): 4.3
Fold, gene nmpC (Acid shock): −6.6
Fold, gene ybaS (Acid shock): 8.8
Fold, gene ycaC (Acid shock): 7.4
Fold, gene ydiZ (Acid shock): 9.1
Fold, gene yeaQ (Acid shock): 6.9
Fold, gene yebV (Acid shock): 6.9
Fold, gene yiaG (Acid shock): 10.1
Fold, gene amyA (Carbon metabolism): 5.8
Fold, gene b2097 (Carbon metabolism): 8.1
Fold, gene glk (Carbon metabolism): 3.4
Fold, gene sfcA (Carbon metabolism): 5.8
Fold, gene sfsA (Carbon metabolism): 6.4
Fold, gene talA (Carbon metabolism): 11.7
Fold, gene tktB (Carbon metabolism): 26.5
Fold, gene clpB (Heat shock): −3.6
Fold, gene dnaJ (Heat shock): −3.0
Fold, gene dnaK (Heat shock): −2.8
Fold, gene grpE (Heat shock): −3.0
Fold, gene hslU (Heat shock): −3.2
Fold, gene hslV (Heat shock): −3.0
Fold, gene ibpB (Heat shock): −6.5
Fold, gene lon (Heat shock): −2.9
Fold, gene mopA (Heat shock): −3.6
Fold, gene mopB (Heat shock): −9.1
Fold, gene hemL (Mg^2+-stimulon): 8.3
Fold, gene mgrB (Mg^2+-stimulon): 4.6
Fold, gene mgtA (Mg^2+-stimulon): 7.5
Fold, gene nagA (Mg^2+-stimulon): 3.7
Fold, gene phoP (Mg^2+-stimulon): 2.8
Fold, gene phoQ (Mg^2+-stimulon): 3.7
Fold, gene rstB (Mg^2+-stimulon): 3.6
Fold, gene nagB (Mg^2+-stlmulon(?)): 8.8
Fold, gene narU (Nitrogen assimilation): 15.1
Fold, gene narX (Nitrogen assimilation): −4.0
Fold, gene narY (Nitrogen assimilation): 11.0
Fold, gene narZ (Nitrogen assimilation): 4.9
Fold, gene nirB (Nitrogen assimilation): −2.9
Fold, gene nirC (Nitrogen assimilation): −3.0
Fold, gene nirD (Nitrogen assimilation): −5.7
Fold, gene nrfA (Nitrogen assimilation): −12.7
Fold, gene bolA (Osmotic shock): 13
Fold, gene dacC (Osmotic shock): 3.6
Fold, gene katE (Osmotic shock): 9.9
Fold, gene osmC (Osmotic shock): 7.2
Fold, gene osmE (Osmotic shock): 11.7
Fold, gene osmY (Osmotic shock): 6.4
Fold, gene otsA (Osmotic shock): 5.2
Fold, gene otsB (Osmotic shock): 5.6
Fold, gene proW (Osmotic shock): 7.9
Fold, gene yehX (Osmotic shock): 5.6
Fold, gene yehY (Osmotic shock): 4.2
Fold, gene yehZ (Osmotic shock): 7.1
Fold, gene pspA (Phage shock): 6.7
Fold, gene pspB (Phage shock): 6.9
Fold, gene pspC (Phage shock): 15.8
Fold, gene pspD (Phage shock): 13.5
Fold, gene pspE (Phage shock): 9.4
Fold, gene sfmC (Protein folding): 11.4
Fold, gene aer (Redox): 14.3
Fold, gene appB (Redox): 47.2
Fold, gene appC (Redox): 3.5
Fold, gene ndh (Redox): 3.1
number of genes down-regulated [1]: 144 genes
number of genes up-regulated [1]: 200 genes
